Measured values published in patent US8759390B2, “Chromene modulators of chemokine receptor activity” (Bristol-Myers Squibb Company, priority 2008, dated 2014).

Target: T1, CCR2 (Homo sapiens, UniProt P41597)
T1 construct: THP-1 human monocytic leukemic cell line, which expresses endogenous CCR2; endogenous in cells; host or cells: THP-1 human monocytic leukemia cells, or human PBMC / human monocytes
T1 sequence (P41597 1-360 isoform P41597-2): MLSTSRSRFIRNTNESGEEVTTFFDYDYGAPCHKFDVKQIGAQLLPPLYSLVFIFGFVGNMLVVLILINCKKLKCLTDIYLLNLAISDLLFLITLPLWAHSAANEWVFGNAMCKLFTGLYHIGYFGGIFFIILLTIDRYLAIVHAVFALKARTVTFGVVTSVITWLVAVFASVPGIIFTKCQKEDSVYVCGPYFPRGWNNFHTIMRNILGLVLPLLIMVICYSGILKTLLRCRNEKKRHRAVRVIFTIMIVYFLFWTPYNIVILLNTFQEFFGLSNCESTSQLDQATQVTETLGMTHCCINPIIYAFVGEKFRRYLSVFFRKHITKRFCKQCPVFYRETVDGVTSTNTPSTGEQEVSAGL
Test: CCR2 binding (125I-human MCP-1 competition on human PBMC / THP-1 cells)
Details: n = 1 unless otherwise noted; tested in one of the assays described
Method: Antagonism of MCP-1 Binding to Human PBMC
Millipore filter plates (#MABVN1250) are treated with 100 μl of binding buffer (0.5% bovine serum albumin, 20 mM HEPES buffer and 5 mM magnesium chloride in RPMI 1640 media) for thirty minutes at room temperature. To measure binding, 50 μl of binding buffer, with or without a known concentration compound, is combined with 50 μl of ^125-I labeled human MCP-1 (to give a final concentration of […] radioligand) and 50 μl of binding buffer containing 5×10^5 cells. Cells used for such binding assays can include human peripheral blood mononuclear cells isolated by Ficoll-Hypaque gradient centrifugation, human monocytes (Weiner et al., J. Immunol. Methods. 1980, 36, 89), or the THP-1 cell line which expresses the endogenous receptor. The mixture of compound, cells and radioligand are incubated at room temperature for thirty minutes. Plates are placed onto a vacuum manifold, vacuum applied, and the plates washed three times with binding buffer containing 0.5M NaCl. The plastic skirt is removed from the plate, the plate allowed to air dry, the wells punched out and counted. The percent inhibition of binding is calculated using the total counts obtained in the absence of any competing compound and the background binding determined by addition of 100 nM MCP-1 in place of the test compound.
THP-1 Monocytic Cell Binding: Whole Cell-Based Assay
The human CCR2 binding assay was also established with the THP-1 human monocytic leukemic cell line, which expresses endogenous CCR2, using ^125I-human MCP-1 as the tracer ligand. Radioligand competition binding assays were used for assessment of binding affinity of test compounds to the CCR2 receptor. For radioligand competition studies, 100 μl containing 2.5×10^5 THP-1 cells/well (in assay buffer containing 50 mM HEPES, pH7.4, 5mM MgCl2, 1 mM CaCl2 and 0.5% BSA) were added to 96-well assay plates containing the test compounds in 3-fold serial dilution, with final concentrations ranging from 5 μM to […]. Subsequently, 50 μl ^125I-MCP-1 radioligand at a final concentration of 0.2 nM in assay buffer were added to the reaction. After a 90 minute incubation period at room temperature, the binding reaction was terminated by harvesting on GF/B filter plates (PerkinElmer Cat. No. 6005177) followed by washing with ice-cold wash buffer (50 mM HEPES, pH 7.4, 0.1% BSA, 0.5 M NaCl) to remove unbound ligand. After washing, the plate was dried for 45 minutes at 60° C. followed by addition of 40 μl MicroScint 20 scintillation fluid, sealed and analyzed by the Packard TopCount reader. Non-specific binding was determined in the presence of 10 μM (a molar excess of […]) of an in-house CCR2 small molecule antagonist (CCR2 IC50=2 nM). Specific binding of ^125I-MCP-1 was calculated as the difference between total and non-specific binding. The competition data was plotted as a percentage inhibition of radioligand specific bound in the absence of test compound (percent of total signal). After correcting for non-specific binding, IC50 values were determined The IC50 is defined as the concentration of test compound required to reduce ^125I-MCP-1 specific binding by 50% and was calculated using the four parameter logistic equation to fit the normalized data.

Compound | Ki
O=C(O)C1=Cc2ccccc2OC1c1ccc(Cl)c2ccccc12 (racemic) [Example 5-2, 2-(4-chloronaphthalen-1-yl)-2H-chromene-3-carboxylic acid] | 1900 nM
O=C(O)C1=Cc2ccccc2OC1c1ccc(Cl)c(C(F)(F)F)c1 (racemic) [Example 2-1, 2-(4-chloro-3-(trifluoromethyl)phenyl)-2H-chromene-3-carboxylic acid] | 75 nM
O=C(O)C1=Cc2ccccc2OC1c1ccc(Cl)c(Cl)c1 (single isomer, unassigned; (-)) [Example 6a, (−)-2-(3,4-dichlorophenyl)-2H-chromene-3-carboxylic acid] | 80 nM
O=C(O)C1=Cc2ccccc2OC1c1cccc2ccccc12 (racemic) [Example 5-5, 2-(naphthalen-1-yl)-2H-chromene-3-carboxylic acid] | 1700 nM
O=C(O)C1=Cc2ccccc2OC1c1cnc2ccccc2c1 (racemic) [Example 5-23, 2-(quinolin-3-yl)-2H-chromene-3-carboxylic acid] | 4300 nM
COc1cc(C2Oc3ccccc3C=C2C(=O)O)ccc1Cl (racemic) [Example 7-1, 2-(3-methoxy-4-chlorophenyl)-2H-chromene-3-carboxylic acid] | 2900 nM
Cc1cccc(C2Oc3ccccc3C=C2C(=O)O)c1 (racemic) [Example 5-20, 2-(3-methylphenyl)-2H-chromene-3-carboxylic acid] | 4200 nM
COc1ccc2c(c1)C=C(C(=O)O)C(c1ccc(Cl)c(Cl)c1)O2 (racemic) [Example 8, 2-(3,4-dichlorophenyl)-6-methoxy-2H-chromene-3-carboxylic acid] | 360 nM
O=C(O)C1=Cc2ccccc2OC1c1ccc(C(F)(F)F)cc1 (racemic) [Example 5-10, 2-(4-trifluoromethylphenyl)-2H-chromene-3-carboxylic acid] | 920 nM
O=C(O)C1=Cc2ccccc2OC1c1ccc2ccccc2n1 (racemic) [Example 5-22, 2-(quinolin-2-yl)-2H-chromene-3-carboxylic acid] | 2100 nM
O=C(O)C1=Cc2ccccc2OC1c1ccc2ccccc2c1 (racemic) [Example 5-4, 2-(naphthalen-2-yl)-2H-chromene-3-carboxylic acid] | 1800 nM
O=C(O)C1=Cc2ccccc2OC1c1ccc(Cl)c(Cl)c1 (racemic) [Example 5-1, 2-(3,4-dichlorophenyl)-2H-chromene-3-carboxylic acid] | 140 nM
